Assay results from US20240059703A1 (AMGEN INC., priority 2021, published 2024).

Tests used:
KRAS G12C = KRAS G12C (Homo sapiens (Human), UniProt P01116, C118A/G12C); assay: 2 h coupled exchange assay; type: biochemical; details: Avg 2 h Coupled exchange IC50, 2 h compound pre-incubation
Description: The term “2 h coupled exchange assay” or “20 h coupled exchange assay” as used herein refers to the assay described in the Section entitled “BIOLOGICAL EVALUATION.”

[1] = test system: MIA PaCa-2 (human pancreatic carcinoma) cells; assay: Cell Viability Assay (CellTiter-Glo), MIA PaCa-2; type: cell-based
Description: Serially-diluted compound or DMSO was added to the cells, and plates were incubated at 37° C., 5% CO2 for 72 h. Cell viability was measured using a CellTiter-Glo® Luminescent Cell Viability Assay kit (Promega) according to the manufacturer's protocol. The luminescence signal of treated samples was normalized to DMSO control, and data were analyzed using a 4-parameter logistic model to calculate IC50 values.

[2] = test system: A549 (human lung carcinoma) cells; assay: Cell Viability Assay (CellTiter-Glo), A549; type: cell-based
Summary of the method: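 MIA PaCa-2 or A549 cells in RPMI 1640 with 10% FBS were seeded at 1.67E+04 cells/mL and incubated overnight. Serially diluted compound was then added for 72 h at 37° C, 5% CO2. Viability read by CellTiter-Glo luminescence, normalized to DMSO, with IC50 from a 4-parameter logistic fit.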

[3] = SOS-mediated nucleotide exchange

KRAS G12C, sequence (P01116 other isoform, or with tags, fused parts or gaps G12C/C118A): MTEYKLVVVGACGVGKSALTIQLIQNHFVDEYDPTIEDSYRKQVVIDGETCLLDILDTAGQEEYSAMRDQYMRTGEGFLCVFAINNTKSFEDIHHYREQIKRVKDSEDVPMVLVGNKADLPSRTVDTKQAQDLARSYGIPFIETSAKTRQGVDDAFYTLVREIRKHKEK

SMILES	IC50 (KRAS G12C) [nM]	IC50 ([1]; Homo sapiens, MIA PaCa-2, 72 h) [nM]	IC50 ([2]; Homo sapiens, A549, 72 h) [nM]	IC50 (KRAS G12C; [3]) [nM]	IC50 ([1]; 72 h) [nM]	IC50 ([2]; 72 h) [nM]
C=CC(=O)N1CC2(CCN(c3nc4c(c(-c5c(C)c(C)cc6cnn(C)c56)c3C)COC(C)(C)C4)C2)C1 (single isomer, unassigned) [Example 14-41, (P)-1-(6-(3,7,7-trimethyl-4-(1,5,6-trimethyl-1H-indazol-7-yl)-7,8-dihydro-5H-pyrano[4,3-b]pyridin-2-yl)-2,6-diazaspiro[3.4]octan-2-yl)-2-propen-1-one]	66	408	> 5000			
C=CC(=O)N1CC2(CCN(c3nc4c(c(-c5c(C)c(C)cc6cnn(C)c56)c3C)[C@@H]3CC[C@H]4C3)C2)C1 (atropisomer, axis not shown; (M)) [Example 2-111, (M)-1-(6-((1S,8R)-5-methyl-6-(1,5,6-trimethyl-1H-indazol-7-yl)-3-azatricyclo[6.2.1.0^2,7]undeca-2,4,6-trien-4-yl)-2,6-diazaspiro[3.4]octan-2-yl)-2-propen-1-one]		210	10900	3		
C=CC(=O)N1CC2(CCN(c3nc4c(c(-c5c(C)ccc6[nH]ncc56)c3C#N)COCCC4(F)F)C2)C1 [Example 13-15, 9,9-difluoro-4-(5-methyl-1H-indazol-4-yl)-2-(2-(2-propenoyl)-2,6-diazaspiro[3.4]octan-6-yl)-5,7,8,9-tetrahydrooxepino[4,3-b]pyridine-3-carbonitrile]		1170	> 5000	163		
C=CC(=O)N1CC2(CCN(c3nc4cc(-c5scnc5C)ccc4c(-c4ccccc4C)c3C#N)C2)C1 [Example 19-2, 4-(2-methylphenyl)-7-(4-methyl-1,3-thiazol-5-yl)-2-(2-(2-propenoyl)-2,6-diazaspiro[3.4]octan-6-yl)-3-quinolinecarbonitrile]	126	1450	> 5000			
C=CC(=O)N1CC2(CCN(c3nc4c(c(-c5cccc6cc(O)ccc56)c3C)CCN(C(C)C)C4)C2)C1 (single isomer, unassigned) [Example 18-4, (P)-1-(6-(4-(6-hydroxy-1-naphthalenyl)-3-methyl-7-(2-propanyl)-5,6,7,8-tetrahydro-1,7-naphthyridin-2-yl)-2,6-diazaspiro[3.4]octan-2-yl)-2-propane-1-one]	17	12	> 5000			
C=CC(=O)N1CC2(CCN(c3nc4c(c(-c5cc(O)cc6ccccc56)n3)CCCC4)C2)C1 [Example 1-1, 1-(6-(4-(3-hydroxynaphthalen-1-yl)-5,6,7,8-tetrahydroquinazolin-2-yl)-2,6-diazaspiro[3.4]octan-2-yl)prop-2-en-1-one]		> 5000	> 5000	431		
C=CC(=O)N1CC2(CCN(c3nc4c(c(-c5cc(O)cc6ccccc56)c3C)CCN(C(C)C)C4)C2)C1 [Example 18-3, 1-(6-(4-(3-hydroxy-1-naphthalenyl)-3-methyl-7-(2-propanyl)-5,6,7,8-tetrahydro-1,7-naphthyridin-2-yl)-2,6-diazaspiro[3.4]octan-2-yl)-2-propen-1-one]	229	137	> 5000			
C=CC(=O)N1CC2(CCN(c3nc4c(c(-c5c(C)ccc6cnn(C)c56)c3C#N)CC[C@@H]3C[C@H]43)C2)C1 (single isomer, unassigned) [Example 13-136, (6a,7a)-4-(1,6-dimethyl-1H-indazol-7-yl)-2-(2-(2-propenoyl)-2,6-diazaspiro[3.4]octan-6-yl)-6,6a,7,7a-tetrahydro-5H-cyclopropa[h]quinoline-3-carbonitrile]		401	> 5000	78		
C=CC(=O)N1CC2(CCN(c3nc4c(c(-c5c(C)ccc6[nH]ncc56)c3C)CCC(C)(C)C4)C2)C1 (single isomer, unassigned) [Example 2-11, (P)-1-(6-(3,7,7-trimethyl-4-(5-methyl-1H-indazol-4-yl)-5,6,7,8-tetrahydro-2-quinolinyl)-2,6-diazaspiro[3.4]octan-2-yl)-2-propen-1-one]		53	6750	27		
C=CC(=O)N1CC2(CCN(c3nc4cc(-c5scnc5C)ccc4c(-c4ccccc4C)c3C#N)C2)C1 (single isomer, unassigned) [Example 19-12, (M)-4-(2-methylphenyl)-7-(4-methyl-1,3-thiazol-5-yl)-2-(2-(2-propenoyl)-2,6-diazaspiro[3.4]octan-6-yl)-3-quinolinecarbonitrile]	74				1400	3790
C=CC(=O)N1CC2(CCN(c3nc4c(c(-c5ccccc5F)c3C#N)CCN(c3ccncc3C)C4)C2)C1 [Example 21-21, 4-(2-fluorophenyl)-7-(3-methyl-4-pyridinyl)-2-(2-(2-propenoyl)-2,6-diazaspiro[3.4]octan-6-yl)-5,6,7,8-tetrahydro-1,7-naphthyridine-3-carbonitrile]	442	> 5000	> 5000			
C=CC(=O)N1CC2(CCN(c3nc4c(c(-c5cccc(F)c5OC)c3C#N)CCC(c3scnc3C)=C4)C2)C1 [Example 23-53, 4-(3-fluoro-2-methoxyphenyl)-7-(4-methyl-1,3-thiazol-5-yl)-2-(2-(2-propenoyl)-2,6-diazaspiro[3.4]octan-6-yl)-5,6-dihydro-3-quinolinecarbonitrile]	391	1230	8870			
C=CC(=O)N1CC2(CCN(c3nc4c(c(-c5ccccc5F)c3C#N)CCC(c3ccnn3C)C4)C2)C1 [Example 13-26, (7R)-4-(2-fluorophenyl)-7-(1-methyl-1H-pyrazol-5-yl)-2-(2-(2-propenoyl)-2,6-diazaspiro[3.4]octan-6-yl)-5,6,7,8-tetrahydro-3-quinolinecarbonitrile|(7S)-4-(2-fluorophenyl)-7-(1-methyl-1H-pyrazol-5-yl)-2-(2-(2-propenoyl)-2,6-diazaspiro[3.4]octan-6-yl)-5,6,7,8-tetrahydro-3-quinolinecarbonitrile]		280	> 5000	35		
C=CC(=O)N1CC2(CCN(c3nc4c(c(-c5c(C)cc(F)c6[nH]ncc56)c3C#N)CCC(C)(C)C4)C2)C1 [Example 13-146, 4-(7-fluoro-5-methyl-1H-indazol-4-yl)-7,7-dimethyl-2-(2-(2-propenoyl)-2,6-diazaspiro[3.4]octan-6-yl)-5,6,7,8-tetrahydro-3-quinolinecarbonitrile]		71	> 5000	29		
C=CC(=O)N1CC2(CCN(c3nc4c(c(-c5c(C)ccc6cnn(C)c56)c3C)COC(C)(C)C4)C2)C1 (single isomer, unassigned) [Example 14-99, (P)-1-(6-(4-(1,6-dimethyl-1H-indazol-7-yl)-3,7,7-trimethyl-7,8-dihydro-5H-pyrano[4,3-b]pyridin-2-yl)-2,6-diazaspiro[3.4]octan-2-yl)-2-propen-1-one]	71	80	> 5000			
C=CC(=O)N1CC2(CCN(c3nc4c(c(-c5cccc(Cl)c5Cl)n3)CCCC4)C2)C1 [Example 1-24, 1-(6-(4-(2,3-dichlorophenyl)-5,6,7,8-tetrahydro-2-quinazolinyl)-2,6-diazaspiro[3.4]octan-2-yl)-2-propen-1-one]		8290	10600	4250		
C=CC(=O)N1CC2(CCN(c3nc4c(c(-c5c(C)ccc6[nH]ncc56)n3)CCCC4)C2)C1 [Example 1-17, 1-(6-(4-(5-methyl-1H-indazol-4-yl)-5,6,7,8-tetrahydro-2-quinazolinyl)-2,6-diazaspiro[3.4]octan-2-yl)-2-propen-1-one]		> 5000	> 5000	5760		
C=CC(=O)N1CC2(CCN(c3nc4c(c(-c5cc(OC)ccc5Cl)c3C#N)CCC(c3scnc3C)=C4)C2)C1 [Example 23-31, 4-(2-chloro-5-methoxyphenyl)-7-(4-methyl-1,3-thiazol-5-yl)-2-(2-(2-propenoyl)-2,6-diazaspiro[3.4]octan-6-yl)-5,6-dihydro-3-quinolinecarbonitrile]	168	2240	6720			
C=CC(=O)N1CC2(CCN(c3nc4c(c(-c5c(C)cnc6[nH]ncc56)c3C#N)CCC(C)(C)C4)C2)C1 [Example 13-151, 7,7-dimethyl-4-(5-methyl-1H-pyrazolo[3,4-b]pyridin-4-yl)-2-(2-(2-propenoyl)-2,6-diazaspiro[3.4]octan-6-yl)-5,6,7,8-tetrahydro-3-quinolinecarbonitrile]		1190	9340	149		
C=CC(=O)N1CC2(CCN(c3nc4c(c(-c5cc(O)cc6ccccc56)c3C)COC(C)(C)C4)C2)C1 (single isomer, unassigned) [Example 14-103, (M)-1-(6-(4-(3-hydroxy-1-naphthalenyl)-3,7,7-trimethyl-7,8-dihydro-5H-pyrano[4,3-b]pyridin-2-yl)-2,6-diazaspiro[3.4]octan-2-yl)-2-propen-1-one]	45	32	7620			
C=CC(=O)N1CC2(CCN(c3nc4c(c(-c5ccccc5F)c3C#N)CCN(C[C@@H]3CCC(=O)N3)C4)C2)C1 [Example 21-33, 4-(2-fluorophenyl)-7-(((2S)-5-oxo-2-pyrrolidinyl)methyl)-2-(2-(2-propenoyl)-2,6-diazaspiro[3.4]octan-6-yl)-5,6,7,8-tetrahydro-1,7-naphthyridine-3-carbonitrile]	957	5520	16100			
